The source of these data is ChEMBL document CHEMBL5724914, “Linking interpersonal differences in gut microbiota composition and drug biotransformation activity” (2024).

Data set [1] in a line: The drug is tested on Z-027 corresponding to metagenome with ENA study accession number: PRJEB37062 and ENA sample accession number: ERS12561826 for biotransformation under anaerobic condition. The drug concentrations were measured over 9 timepoints collected between 0 and 24 hours of incubation by liquid-chromatography-coupled mass spectrometry (LC–MS). The settings on record: 2 µM.

Data set [2] can be described thus: The drug is tested on Z-023 corresponding to metagenome with ENA study accession number: PRJEB37062 and ENA sample accession number: ERS12561822 for biotransformation under anaerobic condition. The drug concentrations were measured over 9 timepoints collected between 0 and 24 hours of incubation by liquid-chromatography-coupled mass spectrometry (LC–MS). The conditions noted are these: 2 µM.

Data set [3] is described as follows: The drug is tested on Z-020 corresponding to rabbit gut metagenome with ENA study accession number: PRJEB37062 and ENA sample accession number: ERS12561819 for biotransformation under anaerobic condition. The drug concentrations were measured over 9 timepoints collected between 0 and 24 hours of incubation by liquid-chromatography-coupled mass spectrometry (LC–MS). The settings on record: 2 µM.

Data set [4] is described as follows: The drug is tested on Z-012 corresponding to metagenome with ENA study accession number: PRJEB37062 and ENA sample accession number: ERS12561812 for biotransformation under anaerobic condition. The drug concentrations were measured over 9 timepoints collected between 0 and 24 hours of incubation by liquid-chromatography-coupled mass spectrometry (LC–MS). The conditions noted are these: 2 µM.

The nature of data set [5]: The drug is tested on Z-011 corresponding to mouse gut metagenome with ENA study accession number: PRJEB37062 and ENA sample accession number: ERS12561811 for biotransformation under anaerobic condition. The drug concentrations were measured over 9 timepoints collected between 0 and 24 hours of incubation by liquid-chromatography-coupled mass spectrometry (LC–MS). The settings on record: 2 µM.

A short description of data set [6]: The drug is tested on Z-001 corresponding to mouse gut metagenome with ENA study accession number: PRJEB37062 and ENA sample accession number: ERS12561801 for biotransformation under anaerobic condition. The drug concentrations were measured over 9 timepoints collected between 0 and 24 hours of incubation by liquid-chromatography-coupled mass spectrometry (LC–MS). The conditions noted are these: 2 µM.

Data set [7] is described as follows: The drug is tested on WLS-098 corresponding to human gut metagenome with ENA study accession number: PRJEB37062 and ENA sample accession number: ERS12561754 for biotransformation under anaerobic condition. The drug concentrations were measured over 9 timepoints collected between 0 and 24 hours of incubation by liquid-chromatography-coupled mass spectrometry (LC–MS). The settings on record: 2 µM.

Data set [8] is described as follows: The drug is tested on WLS-090 corresponding to human gut metagenome with ENA study accession number: PRJEB37062 and ENA sample accession number: ERS12561753 for biotransformation under anaerobic condition. The drug concentrations were measured over 9 timepoints collected between 0 and 24 hours of incubation by liquid-chromatography-coupled mass spectrometry (LC–MS). The settings on record: 2 µM.

A short description of data set [9]: The drug is tested on WLS-073 corresponding to human gut metagenome with ENA study accession number: PRJEB37062 and ENA sample accession number: ERS12561749 for biotransformation under anaerobic condition. The drug concentrations were measured over 9 timepoints collected between 0 and 24 hours of incubation by liquid-chromatography-coupled mass spectrometry (LC–MS). The settings on record: 2 µM.

A short description of data set [10]: The drug is tested on WLS-052 corresponding to human gut metagenome with ENA study accession number: PRJEB37062 and ENA sample accession number: ERS12561747 for biotransformation under anaerobic condition. The drug concentrations were measured over 9 timepoints collected between 0 and 24 hours of incubation by liquid-chromatography-coupled mass spectrometry (LC–MS). The settings on record: 2 µM.

Data set [11] in a line: The drug is tested on WLS-027 corresponding to human gut metagenome with ENA study accession number: PRJEB37062 and ENA sample accession number: ERS12561744 for biotransformation under anaerobic condition. The drug concentrations were measured over 9 timepoints collected between 0 and 24 hours of incubation by liquid-chromatography-coupled mass spectrometry (LC–MS). The settings on record: 2 µM.

Data set [12] is described as follows: The drug is tested on WLS-007 corresponding to human gut metagenome with ENA study accession number: PRJEB37062 and ENA sample accession number: ERS12561742 for biotransformation under anaerobic condition. The drug concentrations were measured over 9 timepoints collected between 0 and 24 hours of incubation by liquid-chromatography-coupled mass spectrometry (LC–MS). The conditions noted are these: 2 µM.

The conditions of data set [13]: human gut metagenome, 24 h, 2 µM.
For data set [14] the following is noted: human gut metagenome, 24 h, 2 µM. This is another data set of the same source.
For data set [15] the following is noted: human gut metagenome, 24 h, 2 µM. This is another data set of the same source.
For data set [16] the following is noted: human gut metagenome, 24 h, 2 µM. The source holds these as a separate data set.
For data set [17] the following is noted: human gut metagenome, 24 h, 2 µM. This is another data set of the same source.
For data set [18] the following is noted: human gut metagenome, 24 h, 2 µM. The source holds these as a separate data set.
The conditions of data set [19]: human gut metagenome, 24 h, 2 µM. The source holds these as a separate data set.
The conditions of data set [20]: human gut metagenome, 24 h, 2 µM. This is another data set of the same source.

Molecules are shown by their SMILES.
Further: call rule not given here.

With `COc1cc2c(c(OC)c1OC)-c1ccc(OC)c(=O)cc1[C@@H](NC(C)=O)CC2` [COLCHICINE], the “Bacterial Biotransformation” value was “Compound NOT metabolized” in data set [1]; “Compound metabolized” in [2]; “Compound NOT metabolized” in [3]; “Compound NOT metabolized” in [4]; “Compound NOT metabolized” in data set [5]; “Compound NOT metabolized” in data set [6]. Also, the “Bacterial Biotransformation” value is “Compound NOT metabolized” in data set [7]; “Compound NOT metabolized” in data set [8]; “Compound metabolized” in data set [9]; “Compound NOT metabolized” in data set [10]; “Compound NOT metabolized” in data set [11]; “Compound metabolized” in data set [12]. For the same molecule, the “Bacterial Biotransformation” value in [13] is “Compound NOT metabolized”; in data set [14], “Compound NOT metabolized”; in data set [15], “Compound metabolized”; in data set [16], “Compound metabolized”; in data set [17], “Compound metabolized”; in data set [18], “Compound metabolized”. The results for the “Bacterial Biotransformation” value in data set [19] and in data set [20] were “Compound metabolized” and “Compound NOT metabolized”, respectively.
As to `CC(=O)OCC(=O)[C@@]12N=C(C)O[C@@H]1C[C@H]1[C@@H]3CCC4=CC(=O)C=C[C@]4(C)[C@H]3[C@@H](O)C[C@@]12C` [DEFLAZACORT], the “Bacterial Biotransformation” value in data set [1], in [2], in data set [3], in data set [4], in data set [5] and in [6] was “Compound metabolized” each time. In addition, the “Bacterial Biotransformation” value in [7], in data set [8], in data set [9], in [10], in [11] and in data set [12] was “Compound metabolized” in each case. For the same molecule, the “Bacterial Biotransformation” value in data set [13], in data set [14], in data set [15], in [16], in data set [17] and in [18] was “Compound metabolized” throughout. Also, the “Bacterial Biotransformation” value in data set [19] and in data set [20] was “Compound metabolized” each time.
`CN(C)CC(c1ccc(O)cc1)C1(O)CCCCC1.O=C(O)CCC(=O)O` (stereo not given) [DESVENLAFAXINE SUCCINATE]: the “Bacterial Biotransformation” value in data set [1], in data set [2], in data set [3], in data set [4], in data set [5] and in [6] was “Compound NOT metabolized” in each case. The “Bacterial Biotransformation” value in [7], in [8], in [9], in data set [10], in data set [11] and in data set [12] was “Compound NOT metabolized” throughout. The “Bacterial Biotransformation” value in data set [13], in [14], in [15], in [16], in data set [17] and in data set [18] was “Compound NOT metabolized” each time. The “Bacterial Biotransformation” value in data set [19] and in data set [20] was “Compound NOT metabolized” each time.
